# Laboratory results from publication PMC5859971 (Genes & Development, 2018).
# Entries after “also recorded” stand apart in the source; their conditions may differ.
# Experiments:
# [1] = target: T1, PHF5A^Y36C mutant complex (Homo sapiens, UniProt O75533+Q7RTV0, Y36C); test: MST compound binding to PHF5A^Y36C mutant complex; settings: result in words
# T1 construct: SF3B1 was limited to the HEAT repeat domain from residues 454–1304 and cloned in-frame with an N-terminal Flag tag; Truncated SF3B1 and full-length SF3B3, PHF5A, and SF3B5 were synthesized; Flag (N); made in house; host or cells: SF21 insect cells (inferred to be made as the wild-type complex)
# T1 sequence (Q15393 whole entry, the tested form may be a part): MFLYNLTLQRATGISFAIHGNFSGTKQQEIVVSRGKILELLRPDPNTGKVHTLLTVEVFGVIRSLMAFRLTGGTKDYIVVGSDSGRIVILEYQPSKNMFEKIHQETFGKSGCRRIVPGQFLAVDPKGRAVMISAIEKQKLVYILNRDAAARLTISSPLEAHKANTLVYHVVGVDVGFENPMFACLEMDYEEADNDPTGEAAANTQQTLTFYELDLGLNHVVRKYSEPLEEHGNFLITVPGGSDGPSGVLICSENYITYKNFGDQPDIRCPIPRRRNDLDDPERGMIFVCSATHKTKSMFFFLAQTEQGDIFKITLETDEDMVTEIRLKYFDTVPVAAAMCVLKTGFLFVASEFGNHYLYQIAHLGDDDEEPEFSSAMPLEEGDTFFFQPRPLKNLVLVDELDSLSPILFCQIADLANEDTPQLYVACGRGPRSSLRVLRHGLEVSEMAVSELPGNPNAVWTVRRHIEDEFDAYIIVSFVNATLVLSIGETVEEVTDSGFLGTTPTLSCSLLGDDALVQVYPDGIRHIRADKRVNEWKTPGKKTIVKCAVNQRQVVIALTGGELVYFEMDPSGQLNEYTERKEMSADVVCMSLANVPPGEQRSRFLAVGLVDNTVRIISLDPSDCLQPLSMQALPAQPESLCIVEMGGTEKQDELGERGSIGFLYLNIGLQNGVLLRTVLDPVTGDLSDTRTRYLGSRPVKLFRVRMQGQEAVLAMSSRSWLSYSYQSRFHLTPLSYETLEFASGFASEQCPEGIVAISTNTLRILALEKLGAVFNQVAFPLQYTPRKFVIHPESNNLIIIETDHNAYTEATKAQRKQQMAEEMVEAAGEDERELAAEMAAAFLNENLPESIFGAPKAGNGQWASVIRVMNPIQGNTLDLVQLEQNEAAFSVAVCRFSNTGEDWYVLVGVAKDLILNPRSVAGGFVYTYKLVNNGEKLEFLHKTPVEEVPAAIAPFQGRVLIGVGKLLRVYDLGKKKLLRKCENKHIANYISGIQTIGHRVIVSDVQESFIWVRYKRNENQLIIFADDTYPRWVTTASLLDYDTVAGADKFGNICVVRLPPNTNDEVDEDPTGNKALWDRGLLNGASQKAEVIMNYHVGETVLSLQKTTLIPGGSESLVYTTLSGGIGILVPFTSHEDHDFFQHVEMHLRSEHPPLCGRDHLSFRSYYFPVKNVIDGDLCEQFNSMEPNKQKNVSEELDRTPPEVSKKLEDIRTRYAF
# T1 sequence (Q9BWJ5 whole entry, further chain, the tested form may be a part): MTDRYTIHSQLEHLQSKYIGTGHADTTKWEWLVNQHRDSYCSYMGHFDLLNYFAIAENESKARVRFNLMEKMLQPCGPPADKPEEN
# T1 sequence (O75533 454-1304): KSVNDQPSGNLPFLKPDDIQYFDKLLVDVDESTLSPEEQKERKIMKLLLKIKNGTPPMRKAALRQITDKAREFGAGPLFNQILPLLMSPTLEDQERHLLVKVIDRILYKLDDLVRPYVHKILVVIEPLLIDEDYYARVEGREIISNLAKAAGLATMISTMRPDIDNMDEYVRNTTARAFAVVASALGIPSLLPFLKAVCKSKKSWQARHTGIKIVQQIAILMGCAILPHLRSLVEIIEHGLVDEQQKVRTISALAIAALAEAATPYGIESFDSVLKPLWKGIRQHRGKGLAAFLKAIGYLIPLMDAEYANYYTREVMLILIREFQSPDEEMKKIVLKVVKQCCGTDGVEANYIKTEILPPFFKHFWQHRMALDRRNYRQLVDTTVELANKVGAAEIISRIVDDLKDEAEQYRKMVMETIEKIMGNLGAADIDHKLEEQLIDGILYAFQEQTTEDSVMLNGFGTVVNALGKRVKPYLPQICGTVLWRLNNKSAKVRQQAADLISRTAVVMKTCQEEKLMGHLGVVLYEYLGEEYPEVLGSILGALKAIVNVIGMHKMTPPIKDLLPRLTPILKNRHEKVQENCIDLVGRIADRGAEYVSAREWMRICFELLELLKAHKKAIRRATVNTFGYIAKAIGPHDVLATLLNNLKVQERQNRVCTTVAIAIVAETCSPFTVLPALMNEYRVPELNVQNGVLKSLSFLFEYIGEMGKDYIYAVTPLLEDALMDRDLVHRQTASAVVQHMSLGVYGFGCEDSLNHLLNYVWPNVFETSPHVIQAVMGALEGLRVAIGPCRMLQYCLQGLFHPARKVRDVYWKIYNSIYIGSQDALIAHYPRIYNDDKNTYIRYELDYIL
# T1 sequence (Q7RTV0 whole entry Y36C, the tested form may be a part): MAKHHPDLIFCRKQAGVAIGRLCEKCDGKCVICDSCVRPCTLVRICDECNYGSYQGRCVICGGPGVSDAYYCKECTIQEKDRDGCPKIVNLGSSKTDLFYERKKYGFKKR
# Protocol: The four-protein complex composed of the HEAT repeats of SF3B1 (residues 454–1304) as well as full-length SF3B3, SF3B5, and PHF5A was coexpressed and purified from insect cells. This complex is necessary and sufficient for compound binding in a scintillation proximity assay (SPA) format ([Teng et al. 2017]).
# The SF3b subcomplex was first titrated against a fixed concentration (25 nM) of fluorescent label (NTA-647) to determine the optimal concentrations of protein and label for the MST experiment. After 15 min of incubation at room temperature, samples were loaded into Monolith NT.115 capillaries, and MST analysis was performed using a Monolith NT.115Pico. […] For subsequent compound-binding experiments, the SF3b subcomplex bound to NTA-647 was fixed at 10 nM, and the compound was titrated from 50 µM to 3 pM. After 15 min of incubation, samples were loaded into capillaries, and analysis was performed as described previously.
# HCT116-PHF5A^WT = test: CellTiter-Glo viability assay, HCT116-PHF5A^WT; assay type: cell-based, human; settings: Homo sapiens; 72 h, CellTiter-Glo; read-out: HCT116-PHF5A^WT GI50
# Protocol: To further validate the pose of the compound, we analyzed the activity of several related chemical probes using the SPA with the purified protein complex ([Teng et al. 2017]). The SPA is formatted as a competition assay in which the purified protein complex is captured on a bead containing scintillant, incubated with test compounds over a dose response, and then competed off with a fixed concentration of ^3H-Plad compound. IC50 curves are then measured from the resulting light emitted from the bead (Table 1; Supplemental Fig. S4). In addition, we tested the probes in viability assays in two engineered cell lines: HCT116-PHF5A^WT and the sensitization line HCT116-PHF5A^R38C (Table 1; Supplemental Fig. S5). This facilitates profiling of chemical probe activity in the PHF5A background (wild type and mutant). The relative expression levels were further confirmed by Western blot analysis (Supplemental Fig. S5).
# Parental HCT116 cells were obtained from American Type Culture Collection and cultured in RPMI 1640 medium supplemented with 10% fetal bovine serum. PHF5A R38C was generated using the Agilent QuikChange II kit and was cloned into pLenti6.3/V5 as described ([Teng et al. 2017]). The verified clone was used for lentivirus production using X293T cells. Parental HCT116 cells were infected with virus and selected with blasticidin S at 10 µg mL^−1 for 1 wk. Engineered cell lines were subsequently maintained in the absence of antibiotic. Transgene expression was confirmed by Western blot analysis (Supplemental Fig. S4). For Western blot analysis, α-PHF5A rabbit polyclonal antibody (Protein Tech, 15554-1-AP) was used at 1:1000 dilution in LI-COR buffer, and anti-rabbit secondary antibody (LI-COR) was used at 1:5000 dilution. The Western blot was imaged using an Odyssey V3.0 imager (LI-COR). For CellTiter-Glo analysis of the wild-type and PHF5A^R38C cell lines, 500 cells were seeded in each well of a 384-well plate 1 d before compound addition. Dose response was measured in 11-point serial dilutions with a top dose of 10 µM. The percentage of DMSO was controlled throughout, and a DMSO-only control was included. Seventy-two hours after dosing, CellTiter-Glo reagent was added, incubated, and assayed on an EnVision multilabel reader (PerkinElmer). Luminescence values from each treatment were normalized to the average value of the respective DMSO control. The dose response curve plots were generated in GraphPad Prism, and GI50 values were calculated from nonlinear regression analysis. GI50 values for the wild-type and R38C mutant cell lines were plotted in Spotfire.
# [2] = tested on: splicing of Ad2.2 pre-mRNA substrate; test: In vitro splicing (IVS) assay, Ad2.2 substrate, HeLa S3 nuclear extracts, RT-qPCR; assay type: biochemical, human
# Source text: (§1) A substrate competitive mechanism of action (MOA) would predict that weaker pre-mRNA substrates would be easier to inhibit than stronger substrates. To date, it has not been possible to evaluate substrate competition using traditional steady-state conditions because splicing reactions are thought to be single-turnover events in vitro, and therefore it is not possible to measure a KM for the pre-mRNA. […] Specifically, we engineered the strong in vitro splicing substrate Ad2.1 by enhancing the U2 snRNP base-pairing around the BPA found in the Ad2 substrate. We then engineered a weaker substrate, Ad2.2, by adding a decoy BPS lacking an extrahelical adenosine (Ad2.2) (Fig. 5A; Supplemental Vector NTI files; [Corrionero et al. 2011]). […] We then evaluated E7107 and several chemical probes to better understand their mechanism.
# (§2) Figure 5. […] (A) Base-pairing logic for IVS substrates. (BPRS) Branch point recognition sequence in U2 snRNA; (BPS) the BPS in the pre-mRNA. The Ad2 gene BPS sequence (UACUUAU) was modified (UACUAAU) to strengthen the U2 base-pairing interactions flanking the BPA, leading to the Ad2.1 substrate (BPA in red). The Ad2.2 sequence has the same BPS as Ad2 but also contains a 5′ decoy BPS sequence (lacking an extrahelical adenine) that can base-pair with the BPRS. The decoy BPS and suboptimal BPS overlap, which gives U2 at least two possibilities for possible base pairing, as indicated. […] (B) RT-qPCR time-course data showing product formation over time. […] (C) Representative IC50 curves for compound 6 using the two different substrates (Ad2.1 and Ad2.2).
# (§3) The Ad2-derived ([Pellizzoni et al. 1998]) sequence was cloned into the pGEM-3Z vector (Promega) using 5′ EcoRI and 3′ XbaI restriction sites. The Ad2 variant (Ad2.2) ([Seiler et al. 2018]) was cloned into pcDNA3.1(+) vector (Promega) using the same restriction sites. The plasmids were linearized using XbaI and used as DNA templates in the in vitro transcription reactions. The FtzΔi intron-less plasmid ([Luo and Reed 1999]) was linearized using EcoRI. All RNAs were in vitro transcribed and then purified using MegaScript T7 and MegaClear kits, respectively (Invitrogen). For splicing reactions used with the Ad2.2 substrate, […] reactions were prepared using 8 µg of nuclear extracts prepared from HeLa S3, a saturating excess of 2 ng of pre-mRNA substrate, 0.2 ng of FTZΔi, and varying concentrations of compounds or DMSO.
# [3] = tested on: splicing of Ad2.1 pre-mRNA substrate; test: In vitro splicing (IVS) assay, Ad2.1 substrate, HeLa S3 nuclear extracts, RT-qPCR; assay type: biochemical, human; settings: Ad2.1 (strong) substrate
# Source text: as §1, §2, §3
compound,measurement,setting,value
CCC(O)C(C)C1OC1CC(C)(O)C=CC=C(C)C1OC(=O)CC(O)CCC(C)(O)C(OC(=O)N2CCN(C3CCCCCC3)CC2)C=CC1C (centres unmarked) [Compound E7107],binding to PHF5A^Y36C mutant complex,[1],no binding was detected; also recorded: not able to bind
same,GI50,HCT116-PHF5A^WT,2.3 nM
same,inhibition of strong and weak IVS substrates,[2]; Ad2.1 and Ad2.2 substrates compared,inhibit both the strong and weak substrates equally well
same,IC50,[2]; Ad2.2 (weak) substrate,9.9 nM
same,IC50,[3],9.1 nM
